A short description of the series: Release study 8-4b: degradation of model conjugates M20-M27 in aqueous DMF:PBS at 37 °C, HPLC-UV/MS. Format: physicochemical. The settings on record: 1 mM in 2:1 DMF:PBS, first order fit, rounded to nearest whole day. As for the experimental part:
8-4b. M20-M27 In Vitro Release Study
In this study, a series of model traceless linker-drug conjugates M20-M27 was held in aqueous solution at 37° C. These reactions were sampled at various timepoints and analyzed to determine the concentration of remaining starting compound. The analytical method was not optimized to determine concentration of the amine-containing drug. Half-life of degradation for the parent was calculated.
Method for Estimation of Conjugate Degradation Rates for M20-M27
Each compound M20-M27 was prepared as a 0.1 M stock solution in DMF. A 35 μL aliquot of each solution was added to 3.465 mL of 2:1 DMF:PBS (for compound M24: 3:1 DMF:PBS) to obtain 1 mM solutions of each compound M20-M27. The reaction vials were held at 37° C. At each time point (e.g., 0, 1, 3, 8, 14, 21, 28, 35, 49, 56, 70, 92 days) analytical samples were prepared by collecting 150 μL from each 1 mM solution and diluting with 75 μL DMF. Two analytical samples were collected from each reaction vial at each time point and stored at 4° C. All samples were analyzed in one batch after completion of the release study. Each sample was analyzed twice using an analytical HPLC method described below.
The composition of the reaction solution was evaluated at each timepoint using HPLC. Compound M20-M27 peaks were assigned by MS detection, and the integration of the peak from the chromatogram generated using UV absorbance detection at 272 nm was determined. The mean peak area for each compound M20-M27 on Day 0 was assigned a normalized value of 100. The absolute area under the curve at each timepoint was compared with these values. Run-to-run peak area reproducibility was typically within 20% on strong signal and considerably worse on weak signals, so normalized signals above 100 likely correspond to values at or approaching 100 (likely 90-100, within experimental error). The percentage of compounds M20-M27 remaining in the solution were calculated by dividing the relevant peak area by the mean area that was assigned a normalized value of 100 and multiplying the result by 100. The percentage of compound M20-M27 present in the solution was plotted versus time and the half-life of degradation was estimated using curve-fitting software assuming first order kinetics.
Analytical HPLC-MS Conditions for Study 8.4b.
All settings the same as for analytical HPLC-MS conditions for study 8.4a except the following: Mobile Phases: A=5 mM ammonium hydroxide in water; B=5 mM ammonium hydroxide in acetonitrile; Flow Rate: 400 μL/min: Gradient (time/% B): 0/10, 0.5/10, 4/80, 8/80, 8.1/10, 12/10. Divert valve switched at 0.5 minutes after sample injection.

Turning to `CCO[Si](OCC1CN(C(=O)CCNC(=O)OCc2ccccc2)CCN1CC(=O)NCc1ccc(OC)cc1)(C(C)C)C(C)C` (stereo not shown) [M27, benzyl N-(3-(3′-(((ethoxydiisopropylsilyl)oxy)methyl)-4′-(2″-((4′′′-methoxybenzyl)amino)-2″-oxoethyl)piperazin-1′-yl)-3-oxopropyl)carbamate], the “Calculated stability t1/2, parent (d)” value is recorded as “No degradation”.
